Calls of active or inactive are those of the source. The calls are words filed in the database; no cut-off is given here.
Organism: Homo sapiens
Assay: Inhibition of cell migration of human A375M6 cells at 1 to 10 uM incubated for 6 hrs by Boyden chambers assay
Assay type: functional

CNC(=O)[C@H](Cc1c[nH]c2ccccc12)NC(=O)[C@@H](CC(=O)NO)CC(C)C
inhibition: Active
